The data set is described as follows: Human HepG2 cell viability assay in 384 well format. The format is toxicity, cell-based. Details: dose 125 nL, time 70.5 hour; cytotoxicity at 70.5 h: concentration not given beside the values. The following applies: HepG2 cells, read-out: Inhibition.
On to `COCC(=O)N1Cc2nccn2CC(CN(C)Cc2cccnc2)C1` (stereo unspecified), for which the cytotoxicity at 70.5 h is -7.06%. Consider `COCc1cncc2c1CCN(C(=O)c1ccoc1C)C2`, for which the cytotoxicity at 70.5 h is -2.3%. Consider `Cc1ccc2c(c1)C1(CCNCC1)CN2C(=O)C(C)C`, for which the cytotoxicity at 70.5 h amounted to 18.3%. As for `CCCS(=O)(=O)N1C[C@H]2C[C@H](C(=O)N(C)C)[C@@H](C1)O2`, the cytotoxicity at 70.5 h was -13.7%. On to `COCCNC(=O)[C@@H]1CCO[C@@H]2CCN(c3ccc(C)nn3)C[C@@H]21`, for which the cytotoxicity at 70.5 h is -15.8%. For `Cc1ccc(N2C[C@H]3OCC[C@H]3[C@H](C(=O)NC3CCCC3)C2)nn1`, the cytotoxicity at 70.5 h was -12.6%.

Take `O=C1[C@@H]2CCN(Cc3ccoc3)C[C@@H]2OCCN1c1cccnc1`: the cytotoxicity at 70.5 h was -13.5%.

With `Cc1ccc(N2C[C@H]3OCC[C@H]3[C@H](C(=O)NCc3ccco3)C2)nn1`, the cytotoxicity at 70.5 h is -7.31%. With `COCCNC(=O)[C@@H]1CN(c2ncccn2)C[C@H]2OCC[C@H]21`, the cytotoxicity at 70.5 h is -2.54%. Turning to `CCCNC(=O)c1cc(-c2cnc(N3CCCC3)nc2)cn1C`, the cytotoxicity at 70.5 h came to 3.66%.

`CCC(=O)N1CCC2(COCc3cnc(N4CCOCC4)nc32)C1` (stereo unspecified): the cytotoxicity at 70.5 h was 1.55%.

On to `COCC(=O)N1CCC2(COCc3cnc(N4CCOCC4)nc32)C1` (stereo unspecified), for which the cytotoxicity at 70.5 h came out at 6.48%.

Take `O=C(CC1CC1)N1CCC2(CC1)CN(c1ccsc1)C(=O)CO2`: the cytotoxicity at 70.5 h was -2.64%.

Take `CNc1ncc(CN(C)C(=O)c2cccc(CC3CCNCC3)c2)cn1`: the cytotoxicity at 70.5 h was 35%. Turning to `COC[C@@H]1CCCN1C(=O)CCc1c(C)nn(C)c1C`, the cytotoxicity at 70.5 h was -2.05%.

As to `CNC(=O)c1n[nH]c2c1C(c1cccc3nsnc13)CC(=O)N2` (stereo unspecified), the cytotoxicity at 70.5 h was -3.59%. The value for `CCc1ncc(C(=O)N(CCOC)Cc2ccccc2F)cn1` was -2.26%; that for `Cc1nc(N2CCCC2C(=O)NC(C)(C)CO)nc2ccccc12` (stereo unspecified) was -7.7%; that for `Fc1ccc(CC2CCN(Cc3cscn3)CC2)cc1` was -14.2%. For `O=C1NCCCc2[nH]c(Cc3cccc(Cl)c3)nc21`, the cytotoxicity at 70.5 h came out at 0.226%. Consider `O=C(CCc1ccccc1F)N1CCCC(OCc2cccnc2)C1` (stereo unspecified), for which the cytotoxicity at 70.5 h is -9.56%. Consider `COC(=O)c1cccc(-c2c[nH]c(C)n2)c1`, for which the cytotoxicity at 70.5 h is -7.21%. As to `CSc1ncccc1C(=O)N(C)CCc1scnc1C`, the cytotoxicity at 70.5 h was -8.88%.

`CC(C)c1nnc(N2C[C@@H]3CC[C@H](C2)N(Cc2ccccc2)C3)s1`: the cytotoxicity at 70.5 h was -4.82%. The value for `COc1cc(N(C)Cc2noc(CC(C)C)n2)ncn1` was 20.1%; that for `Cc1cc2cccc(C(=O)N3CCOC(CCN(C)C)C3)c2o1` (stereo unspecified) was -17.3%; that for `CN1CCNC(=O)C1CC(=O)NCCc1cnn(-c2ccccc2)c1` (stereo unspecified) was 19.9%. Turning to `CN(Cc1ccccc1CN1CCCC1)C(=O)c1c(O)cccc1O`, the cytotoxicity at 70.5 h amounted to 7.79%. With `COCCN1CCN(C(=O)C(c2cccc(F)c2)N(C)C)CC1` (stereo unspecified), the cytotoxicity at 70.5 h turned out to be 1.27%.

Take `Cc1nn(C)c2nc(N(Cc3cnn(C)c3)C3CCCCC3)sc12`: the cytotoxicity at 70.5 h is 7.12%.

As to `NCCO[C@H]1C[C@@H](O)C12CCN(Cc1c(F)cccc1F)CC2`, the cytotoxicity at 70.5 h is -7.05%. For the compound `Cc1cnc(C)c(-c2cc(O)c3c(c2)CN(c2nccs2)CCO3)n1`, the cytotoxicity at 70.5 h was -5.12%. On to `Cc1cnc(NC(C)Cc2cnccn2)nc1N(C)C` (stereo unspecified), for which the cytotoxicity at 70.5 h was -4.28%. The value for `COc1cccc(OCCn2c(C)c(C)oc2=O)c1` was 0.585%. For the compound `O=C(c1ccoc1)N1CCc2ncnc(NCc3ccccn3)c2CC1`, the cytotoxicity at 70.5 h worked out at 25.5%.

With `CN(Cc1ccc(C2CC(=O)Nc3n[nH]cc32)o1)S(C)(=O)=O` (stereo unspecified), the cytotoxicity at 70.5 h stood at 9.86%. The value for `CCc1cc(NCCCN(C)C2CCCC2)ncn1` was -11.3%; that for `NC(=O)CN1CCC(C(=O)NCc2ccc3nonc3c2)CC1` was -14.2%. Take `Cc1ccc2[nH]c(C(=O)N3CCC4(CC3)C(=O)NCCN4C)nc2c1`: the cytotoxicity at 70.5 h was -6.83%.

Regarding `O=C(O)c1cn(CC2CCCN(c3cnc4ccccc4n3)C2)nn1` (stereo unspecified), the cytotoxicity at 70.5 h is -3.54%. With `O=C(Nc1cnn(CC(=O)N2CCCCO2)c1)c1ccsc1`, the cytotoxicity at 70.5 h was -2.35%.

For `CC(C)c1noc(C2CCCN2C(=O)Cc2cn3ccsc3n2)n1` (stereo unspecified), the cytotoxicity at 70.5 h is -9.25%. Consider `CC(C)(CN1CCC(Cc2cccc(C(=O)O)c2)C1)N1CCOCC1` (stereo unspecified), for which the cytotoxicity at 70.5 h was -9.68%. Regarding `CCc1cc(NCCNC(=O)c2cccnc2)n2nc(C)c(C)c2n1`, the cytotoxicity at 70.5 h worked out at 21%. With `CN(C(=O)COc1ccc(F)cc1)[C@@H]1CS(=O)(=O)C[C@H]1O`, the cytotoxicity at 70.5 h is -0.138%. Turning to `CCc1noc(CN(C)C(=O)C2COc3ccccc3C2)n1` (stereo unspecified), the cytotoxicity at 70.5 h was -0.861%. The value for `CSc1ncccc1C(=O)N1CCC2(CC1)c1nc[nH]c1CCN2C` was 7.45%; that for `CCCC(CNc1cc(C(C)C)nc2ccnn12)N(C)C` (stereo unspecified) was 39.1%. Consider `Cc1cc(N[C@H](CO)c2ccccc2)n2nc(C)cc2n1`, for which the cytotoxicity at 70.5 h is -1.18%. Consider `COc1ccc(CC(=O)N2CC[C@@]3(O)CCNC[C@H]3C2)c(OC)c1`, for which the cytotoxicity at 70.5 h was -7.58%. As for `Cn1ccnc1SCCNC(=O)CC1CCc2ccccc21` (stereo unspecified), the cytotoxicity at 70.5 h is -10.6%. For the compound `Cc1ccc(C(C(=O)N2CCC(Cc3noc(C)n3)CC2)N(C)C)cc1` (stereo unspecified), the cytotoxicity at 70.5 h was -8.55%.

Turning to `N[C@H]1CCCN(C(=O)c2cnc(COc3ccccc3)nc2O)C1`, the cytotoxicity at 70.5 h is -9.44%. The figure for `CSCc1nc(CCNC(=O)C(N)c2c(C)n[nH]c2C)cs1` (stereo unspecified) is -3.99%; for `CCCN(Cc1cccnc1)C(=O)C1CCN(Cc2ccco2)CC1` it is -2.7%. Regarding `Cc1nc(CN2CCN(Cc3cc4n(n3)CCNC4)CC2)cs1`, the cytotoxicity at 70.5 h is 22.5%. As to `CC(=O)C1(c2ccccc2)CCN(C(=O)c2ccc3nnnn3c2)CC1`, the cytotoxicity at 70.5 h worked out at 2.77%.

Consider `CSCCc1c(-c2ccccc2)ncn1CCNc1cccnc1`, for which the cytotoxicity at 70.5 h is -8.03%. On to `COc1ccc(OC)c(C(=O)N2C[C@H]3CC[C@@H]2CN(C)C3)c1`, for which the cytotoxicity at 70.5 h worked out at 20.2%. As for `COc1cccc2c1OCC(CNC(=O)Cc1cnccn1)C2` (stereo unspecified), the cytotoxicity at 70.5 h is -3.59%. For the compound `NCCC1CN(c2nc(-c3ccccc3)nc3c2CCNC3)CCO1` (stereo unspecified), the cytotoxicity at 70.5 h turned out to be 2.96%. Consider `Cc1c(CN2C[C@H](O)[C@@H](N3CCOCC3)C2)[nH]c2ccc(F)cc12`, for which the cytotoxicity at 70.5 h came out at 12.2%. The figure for `Cc1cnc(N2CCCOC(CN3CCCCC3)C2)nc1` (stereo unspecified) is -5.72%; for `CSCCC(=O)N1CCC(c2nnc(CN(C)CCO)n2C)CC1` it is -2.23%.

Consider `OCCCN1CCc2onc(C(c3ccccc3)c3ccccc3)c2C1`, for which the cytotoxicity at 70.5 h is 6.85%. In the case of `O=C1CCCN1CCN1CC=C(c2cnn(C3CCS(=O)(=O)C3)c2)CC1` (stereo unspecified), the cytotoxicity at 70.5 h is -10.3%. As for `CCc1nnc(CN(CC)C(=O)C2CC(=O)N(C3CCCC3)C2)o1` (stereo unspecified), the cytotoxicity at 70.5 h was -10.6%. Take `CCC(C(=O)NC1(COC)CCCC1)n1cccn1` (stereo unspecified): the cytotoxicity at 70.5 h stood at 5.08%. With `c1cnc(NCc2cncc3c2CCN(Cc2ccsc2)C3)nc1`, the cytotoxicity at 70.5 h was -7.81%. With `c1cnc(NCc2cncc3c2CCN(Cc2ccoc2)C3)nc1`, the cytotoxicity at 70.5 h was -8.36%.

As to `CCOc1ncnc2c1CCN(C(=O)c1ccncc1F)CC2`, the cytotoxicity at 70.5 h is -3.16%. `Cc1cc(CN2C[C@@H]3COC[C@]3(CNC(=O)N3CCCC3)C2)no1`: the cytotoxicity at 70.5 h worked out at 0.0997%. Take `O=C1CC(c2ccccc2)C2(CCN(C(=O)c3ccncc3F)CC2)N1` (stereo unspecified): the cytotoxicity at 70.5 h is -5.44%. The figure for `CCn1cc2c(n1)CN(Cc1ccc(F)cc1)CC2COCC1CC1` (stereo unspecified) is -1.9%; for `O=C(c1cnccn1)N1C[C@@H]2CCN(c3cccnc3)C[C@@H]2C1` it is -9.4%. For the compound `Cn1cccc1C(=O)N1C[C@@H]2CCN(c3cccnc3)C[C@@H]2C1`, the cytotoxicity at 70.5 h was -7.6%. Take `COCCNC(=O)C1CN(Cc2csc(C)n2)Cc2ccnn2C1` (stereo unspecified): the cytotoxicity at 70.5 h was -8.82%. On to `CCn1cc2c(n1)CN(Cc1cnn(C)c1)CC2COCC1CC1` (stereo unspecified), for which the cytotoxicity at 70.5 h was -11.6%.

For the compound `CCS(=O)(=O)N1CC[C@H]2C(=O)N(Cc3cccnc3)CCO[C@H]2C1`, the cytotoxicity at 70.5 h is -13.9%. On to `CN(C)C(=O)[C@H]1C[C@@H]2CN(CCc3ccccc3)C[C@H]1O2`, for which the cytotoxicity at 70.5 h is -6.59%.

Consider `O=C1[C@@H]2CCN(Cc3ccoc3)C[C@@H]2OCCN1Cc1cccc(F)c1`, for which the cytotoxicity at 70.5 h is -4.35%. The figure for `CN(C)C(=O)NC1COC2(CCN(Cc3ccc(Cl)c(F)c3)CC2)C1` (stereo unspecified) is -8.77%; for `CO[C@@H]1CCN(Cc2nccs2)C[C@@H]1Cc1cccc(C)c1` it is -3.84%. With `c1ccc(C[C@H]2CN(Cc3nccs3)CC[C@@H]2OCC2CC2)cc1`, the cytotoxicity at 70.5 h was -2.59%.

With `O=C(c1ccco1)N1C[C@@H]2CCN(c3cccnc3)C[C@@H]2C1`, the cytotoxicity at 70.5 h was -11.6%. As to `c1cnc(N2CCO[C@H]3CN(Cc4csnn4)C[C@H]32)nc1`, the cytotoxicity at 70.5 h is -11.7%. The value for `Cc1ccc(CN2CCn3c(C(=O)N(C)C)cnc3C2)cc1` was 2.94%. Take `COc1ccc(CN2CCn3c(C(=O)N(C)C)cnc3C2)cc1`: the cytotoxicity at 70.5 h was -3.13%. Turning to `CCS(=O)(=O)NC[C@]12COC[C@H]1CN(Cc1ccccn1)C2`, the cytotoxicity at 70.5 h is -3.72%. For `Cc1cccc(CN2C(=O)CC[C@@H]3[C@H]2CCN3Cc2ccc(F)cc2)n1`, the cytotoxicity at 70.5 h was -4.94%.

As for `Cc1noc(C)c1CN1Cc2ccnn2CC(C(=O)NCC2CC2)C1` (stereo unspecified), the cytotoxicity at 70.5 h is -6.51%. Regarding `O=C(O)c1cc2c(nc1-c1ccoc1)CCN(Cc1ccco1)CC2`, the cytotoxicity at 70.5 h was -14.2%. With `COCCN1CCc2cc(C(=O)O)c(-c3ccoc3)nc2CC1`, the cytotoxicity at 70.5 h is -12.3%.

For the compound `CCOCCN1Cc2ncn(C)c2C(COCC2CCOCC2)C1` (stereo unspecified), the cytotoxicity at 70.5 h is -7.05%. Regarding `CN(C)C(=O)c1cnc2n1CCN(Cc1cccnc1)C2`, the cytotoxicity at 70.5 h stood at 4.75%. As to `Cc1ccc(N2CCO[C@H]3CN(Cc4ccccn4)C[C@H]32)nn1`, the cytotoxicity at 70.5 h is -9.99%.

Values taken from ChEMBL document CHEMBL3507680, “University of Dundee, Gates Library screen for HepG2 cell viability”.
